# Test: Toxicity in Sprague-Dawley rat assessed as mortality administered as po single dose measured up to 1 month post dose
# Assay type: organism-based
# Conditions: in vivo
compound,measurement,value
Cc1nn(-c2ccccc2)c(Oc2ccc(-c3nc4cc([N+](=O)[O-])ccc4[nH]3)cc2)c1/C=N/NC(N)=O,LD50 at 1 month,500 mg/kg

# Source: ChEMBL document CHEMBL4145469, “Part II: New candidates of pyrazole-benzimidazole conjugates as checkpoint kinase 2 (Chk2) inhibitors” (Eur J Med Chem, 2018)
